Measurements taken from patent publication US9504702B2, “Methods of inhibition of protein fucosylation in vivo using fucose analogs” (Seattle Genetics, Inc., priority 2010, dated 2016).

Columns and labels:
[1] = system: LP-1 cells (IgG heavy chain fucose signal); test: Fucosylation of LP-1 IgG, SDS-PAGE/Western blot with biotinylated AOL; type: cell-based, human; conditions: for AOL signal on IgG heavy chain, SDS-PAGE/Western blot: 50 μM, LP-1 cells, versus untreated cells; for inhibition of fucosylation of antibody (AOL signal): IgG isolated from LP-1 culture
From the text: The ability of different fucose analogs to inhibit the fucosylation of IgG antibodies produced by human myeloma cells as well as the fucosylation of surface proteins of human cancer cell lines was investigated. In a first study, the ability of fucose analogs to inhibit fucosylation of IgG produced by the cell line LP-1, a human multiple myeloma cell line, was investigated. The antibodies produced by, and found in the culture medium of, untreated LP-1 cells were confirmed to be of the IgG type by western blot using anti-human IgG detection (data not shown). This was accomplished by growing 20 mL of LP-1 cells in a T-75 culture flask (250,000 cells/mL) for 5 days at 37° C. in a humidified atmosphere of 5% CO2 in IgG-depleted tissue culture media (90% RPMI with 10% IgG-depleted heat inactivated FBS). Harvest of the cells was by centrifugation (200×g, 4° C., 5 min), and the culture medium was collected. The medium was filtered through a 0.22 μm filter and then incubated with 1 mL of a 50% MabSelect™ protein A resin slurry in PBS at 4° C. with rotation overnight to capture the IgG. The resin slurry was allowed to settle and most of the medium was removed. The resin slurry was transferred with ˜0.5 mL media to two cellulose acetate filter spin cups and was centrifuged at 5000×g for 1 min. The resin bed was then washed 3 times with 0.5 mL PBS. The IgG was eluted with 700 μL of Pierce IgG elution buffer (into with 52 μL of 9 M Tris buffer, pH 9.5 to adjust the pH after elution). The resulting elution was transferred to a 10,000 MW cutoff centrifugal concentrator and the sample was concentrated to approximately 20 μL. 1 μL of the concentrated sample was loaded on an SDS polyacrylamide gel for separation followed by blotting onto nitrocellulose membrane. Staining of the blot for total protein was with Ponceau S and for identification of isotype with anti-human IgG antibody.
Antibody fucosylation can also be determined using a biotin-labeled Aspergillus oryzae L-fucose-specific lectin (AOL), which binds specifically to the α-1,6-linked fucose of the antibody. This method for fucose detection works for both blotted protein that has either been separated by SDS-PAGE or for protein that has been applied to nitrocellulose without separation. The […] signal generated using the AOL-biotin conjugate with streptavidin-HRP binding and ECL detection can be quantitated using an Alpha Innotech FlourChem® Q system.
The three analogs chosen were used at a concentration of 50 μM. These analyses compared the activity of 2-fluorofucose (SGD-2083), 2-fluorofucose peracetate (SGD-2084), and alkynyl fucose peracetate (SGD-1890) with antibody from untreated cells.

[2] = system: LS174T, PC-3, HL-60, Ramos, and Caki-1 cell lines; test: Cell surface fucosylation of human-derived cell lines cultured with fucose analog, FACS (Example 7, Study 1); type: cell-based; conditions: 100 μM, two weeks
Procedure: Human-derived cell lines were evaluated for their susceptibility to the fucose analog 2-fluorofucose in vitro. The cells lines were: LS174T colon adenocarcinoma, […], HL-60 acute mylogenous leukemia, Ramos Burkitt lymphoma, and Caki-1 renal cell carcinoma. The cell lines were cultured in the presence of 100 μM 2-fluorofucose (SGD-2083) in growth media, 100 μM alkynylfucose (SGD-1887) in growth media, or control growth media (without a fucose analog) for two weeks. The growth media were MEM Eagle with 10% FBS (LS174T), 50:50 F12 and RPMI with 10% FBS (PC-3), RPMI with 10% FBS (HL-60), IMDM with 10% FBS (Ramos), and McCoy with 10% FBS ([…]). The cells were evaluated for cell surface fucosylation by FACS using antibody cBR96 to detect LewisY, antibody SSEA-1 to detect LewisX, P-selectin ligand to detect P-selectin, and AOL lectin to detect the general level of fucosylation.

[3] = system: LS174T colon adenocarcinoma cells; test: Xenograft of LS174T cells without prior treatment (Example 7, Study 3); type: in vivo, female nude mice
Procedure: In a third study, tumor cells were implanted without prior treatment with a fucose analog. LS174T colon adenocarcinoma cells (5×10^5 cells in 25% Matrigel) were implanted subcutaneously into female nude mice. Mice were supplied with 50 mM 2-fluorofucose (SGD-2083) in their drinking water from 7 days before implant until 21 days after implant, or were supplied with regular drinking water.

Ramos Burkitt lymphoma = test: Xenograft of pre-treated Ramos cells (Example 7, Study 2); type: in vivo, female SCID mice; conditions: 20 mM in drinking water
Procedure: (§1) To further evaluate the activity of these fucose analogs, further studies were performed in vivo using tumor cells that had been pre-treated by culturing in the presence of a fucose analog, or using untreated tumor cells. Tumor cells were implanted into 10 mice per group as follows. For the LS174T, PC-3, and Caki-1 cell lines, 5×10^5 cells in 25% Matrigel were implanted subcutaneously into female nude mice. For HL-60 and Ramos cell lines, 5×10^6 cells were implanted subcutaneously into female SCID mice. For mice implanted with untreated tumor cells, mice were provided regular drinking water. For mice implanted with tumor cells pre-treated with 2-fluorofucose (SGD-2083), the mice were provided drinking water supplemented with 20 mM 2-fluorofucose (SGD-2083). For mice implanted with tumor cells pre-treated with alkylnyl fucose (SGD-1887), the mice were provided with regular drinking water.
(§2) After 3 weeks of receiving 2-fluorofucose-containing drinking water, mice were returned to regular drinking water, except for mice with Caki-1 tumors. The latter mice were returned to regular drinking water for one week. After the week of receiving regular water, mice were randomized to two groups of 5 each to receive drinking water supplemented with 20 mM 2-fluorofucose or regular drinking water. Mice were sacrificed when tumors reached about 1000 mm^3.

[4] = system: HL-60 acute mylogenous leukemia; test: Xenograft of pre-treated HL-60 cells (Example 7, Study 2); type: in vivo, female SCID mice; conditions: 20 mM in drinking water
Procedure: as §1, §2

| Compound | AOL signal on IgG heavy chain, SDS-PAGE/Western blot [1] | inhibition of fucosylation of antibody (AOL signal) [1] | inhibition of protein fucosylation, compared with alkynyl fucose (SGD-1887) [2] | tumor growth ([3]; 50 mM in drinking water) | average tumor size ([3]; 50 mM in drinking water from 7 days before until 21 days after implant, regular water 734 mm^3) [mm^3] | tumor growth (Ramos Burkitt lymphoma) | tumor growth [4] |
| --- | --- | --- | --- | --- | --- | --- | --- |
| C#CC(OC(C)=O)[C@@H](OC(C)=O)[C@@H](OC(C)=O)[C@@H](C=O)OC(C)=O (stereo partly drawn) [SGD-1890, 5-ethynylarabinose tetraacetate] | did not show reactivity with the biotinylated AOL | did | – | – | – | – | – |
| C[C@H](O)[C@@H](O)[C@@H](O)[C@H](F)C=O [SGD-2083, 2-fluoro-2-deoxy fucose] | no apparent change in the AOL signal | did not inhibit fucosylation of antibody | generally a better inhibitor | substantial inhibition of tumor growth | 110 | No change in tumor growth | No change in tumor growth |
